Test results published in patent publication US6120997A, “Nucleic acid binders having an hydroxyamine motif” (The Scripps Research Institute, priority 1998, dated 2000).

Assays:
[1] = tested on: Escherichia coli (ATCC 25922); test: minimum inhibitory concentration, broth dilution technique; format: cell-based; conditions: E. coli, liquid culture
Excerpt: We reasoned that this modification would provide the cleanest test for probing the ionic contribution, since hydrogen bond donor abilities, electronegativity and steric demand are similar for both functional groups. In order to learn how well the model system correlates with in vivo activity, we checked the new compounds for antibacterial activity against three bacterial strains using the disc method (Kirby-Bauer technique). The minimum inhibitory concentrations (MICs) of the compounds were then determined using the broth dilution technique. For antibiotic testing protocols, see: (a) Disk testing protocols: Phillips, I.; Williams, D., in Laboratory Methods in Antimicrobial Chemotherapy, Garrod, L. (ed.) Churchill Livingstone Press: Edinburgh, 1978, pp. 3-30. (b) MIC determination: Waterworth, P. M., in Laboratory Methods in Antimicrobial Chemotherapy, Garrod, L. (ed.) Churchill Livingstone Press: Edinburgh, 1978, pp. 31-40; Barry, A. L. The Antimicrobic Susceptibility Test: Principles and Practice, Lea and Febiger: Philadelphia (1976). (c) Standards: Lorian, V., Antibiotics in Laboratory Medicine (2nd. ed.), Williams and Wilkins: Baltimore, 1986.
FIG. 39A gives the zone diameters measured for the three bacterial strains. The zone diameters measured for the strains with known antibiotics are well within the accepted limits. […] It is worth noting that some testing protocols recommend overnight growth of the cultures, rather than the minimum time required to obtain good growth of the control. MIC values were tested for several of the control antibiotics using overnight growth, and the MIC values observed were 2-4× greater than those observed for 4-6 hour growth.
Minimal Inhibitory Concentration (MIC) testing. E. coli ATCC 25922 was grown in Mueller-Hinton broth (cation-adjusted, BBL Microbiology Systems) to an optical density of approx. 0.5 (absorbance read at 600 nm), then diluted to an OD600 of 0.1. Samples of antibiotic were prepared in Mueller-Hinton broth, typically a series of 2-fold dilutions from […]. […] The absorbance of each sample was read (1=600 nm), and MIC was considered to be the lowest antibiotic concentration at which the absorbance was less than 1% of the no-antibiotic control.

[2] = tested on: bacterial protein synthesis; conditions: cited from earlier work
Rev-RRE = conditions: cited from earlier work
AS-U1495A = test: SPR binding of aminoglycosides to AS-U1495A; conditions: HBS-buffer
Experimental: The RNA binding properties of 100-800 were analyzed using a surface plasmon resonance based assay that was recently developed in these laboratories. This assay allows the determination of both affinity and specificity of small molecule-RNA interactions. For the analysis, the compounds were injected over a matrix containing RNA that was immobilized through a biotin tag and the equilibrium binding values were recorded at various concentrations.
Non-linear curve fitting was then used to determine the values of the dissociation constants (KD). The specificity of binding, i.e. the ability to discriminate between different RNA sequences was evaluated by comparing the binding to the target sequence (AS-wt) and the negative control (AS-U1495A). […]
For the quantitative measurement of aminoglycoside binding to these sequences, we utilized our recently developed SPR-based assay. […]
In the same manner as illustrated for paromomycin, a panel of aminoglycosides was screened and the results are compiled in the table of FIGS. 46 and 47. […] All data were recorded under near physiological salt conditions (HBS-buffer: 150 mM NaCl, 10 mM HEPES, pH7.4, 3.4 mM EDTA) unless noted otherwise. […]
Plasmon resonance and antimicrobial testing for Example 4. Synthesis of the biotinylated RNA and surface plasmon resonance detected binding experiments were performed as described vida supra. […]

| SMILES | antibacterial activity / MIC compared with neomycin B (in words) [1] | effect on bacterial protein synthesis (in words) [2] | reported inhibitory effect on Rev-RRE binding (in words) (Rev-RRE) | reported inhibition difference between neomycin B and paromomycin, Rev-RRE (Rev-RRE; gel-shift assays) | weaker binding to AS-U1495A than to AS-wt (AS-U1495A) |
| --- | --- | --- | --- | --- | --- |
| NC[C@@H]1O[C@H](O[C@H]2[C@@H](O)[C@H](O[C@@H]3[C@@H](O)[C@H](N)C[C@H](N)[C@H]3O[C@H]3O[C@H](CN)[C@@H](O)[C@H](O)[C@H]3N)O[C@@H]2CO)[C@H](N)[C@@H](O)[C@@H]1O [Neomycin B] | within accepted ranges for sensitive E. coli strains | induces miscoding during translation |  |  |  |
| NC[C@@H]1O[C@H](O[C@H]2[C@@H](O)[C@H](O[C@@H]3[C@@H](O)[C@H](N)C[C@H](N)[C@H]3O[C@H]3O[C@H](CO)[C@@H](O)[C@H](O)[C@H]3N)O[C@@H]2CO)[C@H](N)[C@@H](O)[C@@H]1O [Paromomycin] |  |  | virtually no inhibitory effect | > 100 fold | 20 fold |
